We go through 26 compounds from ChEMBL document CHEMBL4393704, “Synthesis and biological evaluation of dihydroquinazoline-2-amines as potent non-nucleoside reverse transcriptase inhibitors of wild-type and mutant HIV-1 strains” (Eur J Med Chem, 2019).

Structures are written as SMILES.

For series [1], the system named is Human immunodeficiency virus 1. Briefly: Antiviral activity against HIV-1 3B harboring reverse transcriptase E138K mutant infected in MT4 cells measured after 5 days by MTT assay. Format: functional, organism-based. To be noted: Human immunodeficiency virus 1, 3B, MT4, 120 h. For orientation: Formazan colour is commonly taken as a measure of viable cells.
Series [2] is described as follows: Cytotoxicity against human MT4 cells measured after 5 days by MTT assay. Format: cell-based.
Series [3] relates to Human immunodeficiency virus 1. Briefly: Antiviral activity against HIV-1 3B harboring reverse transcriptase RES056 mutant infected in MT4 cells measured after 5 days by MTT assay. The format is functional, organism-based. To be noted: Human immunodeficiency virus 1, 3B, MT4, 120 h.
Series [4] can be described thus: Selectivity index, ratio of CC50 for human MT4 cells to EC50 for HIV-1 3B infected in MT4 cells. The format is toxicity, cell-based. To be noted: HIV-1 3B infected MT4 cells, read-out: Ratio CC50/EC50.
For series [5], the system named is Human immunodeficiency virus 1. As to the kind of experiment: Antiviral activity against wild type HIV-1 3B infected in MT4 cells measured after 5 days by MTT assay. Format: functional, organism-based. To be noted: Human immunodeficiency virus 1, 3B, MT4, 120 h.
Series [6] concerns the target Human immunodeficiency virus type 1 reverse transcriptase (Human immunodeficiency virus 1, UniProt Q72547). As to the kind of experiment: Inhibition of recombinant wild-type HIV1 3B reverse transcriptase assessed as reduction in biotin-dUTP incorporation using poly(rA)/oligo(dT)16 as template primer incubated for 1 hr followed by the addition of (DIG)-dUTP and biotin-labeled dNTPs by ELISA.

Series [7] deals with Human immunodeficiency virus 1. Briefly: Potency index, ratio of EFV EC50 to compound EC50 for antiviral activity against wild type HIV-1 3B infected in MT4 cells measured after 5 days by MTT assay. Format: functional.
For series [8], the system named is Human immunodeficiency virus 1. Briefly: Potency index, ratio of ETV EC50 to compound EC50 for antiviral activity against wild type HIV-1 3B infected in MT4 cells measured after 5 days by MTT assay. The format is functional.
The test system of series [9] is Human immunodeficiency virus 1. Briefly: Potency index, ratio of ETV EC50 to compound EC50 for antiviral activity against HIV-1 3B harboring reverse transcriptase E138K mutant infected in MT4 cells measured after 5 days by MTT assay. Format: functional.

The term EC50 denotes the midpoint of the concentration-response curve. A low value points to greater potency. By CC50 is commonly meant the concentration that lowers cell viability or growth by half. Low values mean harm at low concentration, high ones better tolerance by the cells. For the compound `COc1ccc(NC2=Nc3ccc(Cl)cc3C(C#CC3CC3)(C(F)(F)F)N2)cc1` (stereo not given), the EC50 in series [1] was 410 nM; in series [3], more than 8400 nM; in [5], 260 nM. Also, it took 8400 nM to reach half-maximal cytotoxicity in [2] (CC50 at 120 h). Also, the selectivity ratio in series [4] was 32.

By IC50 is commonly meant the concentration needed to halve the response being measured. Turning to `FC(F)(F)C1(C#CC2CC2)NC(Nc2ccccc2Br)=Nc2ccc(Cl)cc21` (stereo not given), the IC50 in series [6] came out at 3.4 nM. Moreover, the EC50 in [1] stood at 160 nM; in series [3], 1800 nM; in [5] it was 88 nM. In series [2], this compound registered a CC50 at 120 h of 11000 nM. The selectivity ratio in [4] is 133.

In the case of `Cc1ccc(NC2=Nc3ccc(Cl)cc3C(C#CC3CC3)(C(F)(F)F)N2)cc1` (stereo not given), the EC50 is 400 nM in series [1], more than 4900 nM in [3] and 250 nM in series [5]. The same compound returned a CC50 at 120 h in [2] of 5000 nM. In addition, the selectivity ratio in [4] stood at 20.

For `Fc1ccc(NC2=Nc3ccc(Cl)cc3C(C#CC3CC3)(C(F)(F)F)N2)cc1F` (stereo not given), the values for the EC50 in series [1], in series [3] and in [5] were more than 1800 nM, more than 1800 nM and 360 nM, respectively. Further, in series [2], half-maximal cytotoxicity (CC50 at 120 h) was put at 1800 nM. Moreover, the selectivity ratio in series [4] amounted to 5.

As to `FC(F)(F)C1(C#CC2CC2)NC(Nc2ccccc2)=Nc2ccc(Cl)cc21` (stereo not given), the EC50 was 380 nM in [1], more than 2400 nM in series [3] and 110 nM in series [5]. In series [2], this compound had a half-maximal cytotoxic concentration (CC50) at 120 h of 2400 nM. Moreover, the selectivity ratio in [4] worked out at 21.

On to `N#Cc1cccc(NC2=Nc3ccc(Cl)cc3C(C#CC3CC3)(C(F)(F)F)N2)c1` (stereo not given), for which the EC50 in series [1] is 650 nM; in [3], more than 2200 nM; in [5], 440 nM. In [2], this compound yielded a CC50 at 120 h of 2200 nM. Also, the selectivity ratio in series [4] was found to be 5.

Regarding `Cc1cccc(NC2=Nc3ccc(Cl)cc3C(C#CC3CC3)(C(F)(F)F)N2)c1` (stereo not given), the EC50 was 360 nM in series [1], more than 2100 nM in series [3] and 210 nM in series [5]. Also, the CC50 at 120 h in [2] was 2100 nM. The selectivity ratio in series [4] is 10.

As to `Fc1ccccc1NC1=Nc2ccc(Cl)cc2C(C#CC2CC2)(C(F)(F)F)N1` (stereo not given), the EC50 in series [1] is 140 nM; in [3], more than 3100 nM; in series [5], 100 nM. Moreover, half-maximal cytotoxicity in series [2] (CC50 at 120 h) was put at 3100 nM. Also, the selectivity ratio in [4] was 31.

Turning to `N#Cc1ccc(NC2=Nc3ccc(Cl)cc3C(C#CC3CC3)(C(F)(F)F)N2)cc1` (stereo not given), the IC50 in series [6] stood at 10 nM. For the same compound, the EC50 in [1] stood at 3.5 nM; in series [3], 66 nM; in [5] it was 0.84 nM. Further, the figures for the “Ratio EC50” value in series [7], in series [8] and in series [9] were 2, 9 and 2, respectively. The CC50 at 120 h in series [2] worked out at 1900 nM. The selectivity ratio in series [4] amounted to 2300.

Take `Cc1ccc(NC2=Nc3ccc(Cl)cc3C(C#CC3CC3)(C(F)(F)F)N2)cc1C` (stereo not given): the EC50 is 560 nM in series [1], more than 5800 nM in series [3] and 610 nM in series [5]. In series [2], this compound returned a CC50 at 120 h of 5900 nM. Further, in series [4], the selectivity ratio is 8.

In the case of `Cc1ccccc1NC1=Nc2ccc(Cl)cc2C(C#CC2CC2)(C(F)(F)F)N1` (stereo not given), the EC50 is 400 nM in [1], more than 4100 nM in series [3] and 140 nM in series [5]. Moreover, in series [2], the CC50 at 120 h was 4100 nM. Moreover, the selectivity ratio in series [4] turned out to be 30.

Regarding `FC(F)(F)C1(C#CC2CC2)NC(Nc2cccc(Cl)c2)=Nc2ccc(Cl)cc21` (stereo not given), the EC50 was 480 nM in series [1], more than 2000 nM in series [3] and 210 nM in series [5]. Also, the CC50 at 120 h in [2] stood at 2000 nM. The selectivity ratio in series [4] was 9.

On to `Cc1cc(C)cc(NC2=Nc3ccc(Cl)cc3C(C#CC3CC3)(C(F)(F)F)N2)c1` (stereo not given), for which the EC50 in series [1] is 600 nM; in [3], more than 2100 nM; in series [5] it was 360 nM. In addition, in series [2], the midpoint of cytotoxicity, the CC50 at 120 h, lay at 2100 nM. Also, the selectivity ratio in series [4] was 6.

For `Fc1cccc(NC2=Nc3ccc(Cl)cc3C(C#CC3CC3)(C(F)(F)F)N2)c1` (stereo not given), the EC50 was 340 nM in series [1], more than 2000 nM in series [3] and 160 nM in [5]. The compound further yielded a CC50 at 120 h in [2] of 2000 nM. Besides, in [4], the selectivity ratio came out at 12.

For `FC(F)(F)C1(C#CC2CC2)NC(Nc2ccc(Cl)c(Cl)c2)=Nc2ccc(Cl)cc21` (stereo not given), the IC50 in series [6] is 3.7 nM. Moreover, the EC50 was 170 nM in [1], more than 2100 nM in [3] and 30 nM in series [5]. Moreover, the CC50 at 120 h in series [2] came to 2100 nM. For the same compound, the selectivity ratio in series [4] came out at 70.

In the case of `COc1cccc(NC2=Nc3ccc(Cl)cc3C(C#CC3CC3)(C(F)(F)F)N2)c1` (stereo not given), the IC50 in series [6] stood at 1.1 nM. Moreover, the EC50 in [1] was 290 nM; in series [3], more than 2600 nM; in series [5], 63 nM. For the same compound, in series [2], the CC50 at 120 h amounted to 2700 nM. The selectivity ratio in series [4] was 44.

In the case of `Fc1ccc(NC2=Nc3ccc(Cl)cc3C(C#CC3CC3)(C(F)(F)F)N2)cc1Cl` (stereo not given), the EC50 is 460 nM in series [1], more than 1800 nM in [3] and 190 nM in [5]. Further, the CC50 at 120 h in [2] stood at 1900 nM. The selectivity ratio in [4] is 10.

Regarding `FC(F)(F)C1(C#CC2CC2)NC(Nc2ccc(Br)cc2)=Nc2ccc(Cl)cc21` (stereo not given), the EC50 in series [1] is more than 3400 nM; in [3], more than 3400 nM; in [5] it was 450 nM. In [2], this compound came in with a CC50 at 120 h of more than 3400 nM. Also, the selectivity ratio in [4] is more than 8.

Take `COc1ccccc1NC1=Nc2ccc(Cl)cc2C(C#CC2CC2)(C(F)(F)F)N1` (stereo not given): the EC50 in [1] is 190 nM; in series [3] it was more than 8600 nM; in series [5], 150 nM. The same compound showed a CC50 at 120 h in series [2] of 8600 nM. Besides, the selectivity ratio in series [4] came to 58.

For `NC(=O)c1ccc(NC2=Nc3ccc(Cl)cc3C(C#CC3CC3)(C(F)(F)F)N2)cc1` (stereo not given), the EC50 in [1] is 160 nM; in series [3], more than 2900 nM; in series [5] it was 220 nM. This compound also yielded a 50% cytotoxic concentration (CC50) at 120 h in [2] of 12000 nM. The selectivity ratio in series [4] is 58.

Regarding `FC(F)(F)c1cccc(NC2=Nc3ccc(Cl)cc3C(C#CC3CC3)(C(F)(F)F)N2)c1` (stereo not given), the IC50 in [6] is 4.5 nM. In addition, the EC50 in series [1] was 350 nM; in [3], more than 3200 nM; in series [5], 51 nM. For the same compound, the CC50 at 120 h in series [2] was 3300 nM. Moreover, in series [4], the selectivity ratio came out at 64.

As to `FC(F)(F)C1(C#CC2CC2)NC(Nc2cccc(Br)c2)=Nc2ccc(Cl)cc21` (stereo not given), the EC50 is 420 nM in series [1], more than 2100 nM in [3] and 150 nM in series [5]. The CC50 at 120 h in series [2] stood at 2100 nM. In addition, in series [4], the selectivity ratio is 14.

For `Fc1ccc(NC2=Nc3ccc(Cl)cc3C(C#CC3CC3)(C(F)(F)F)N2)cc1` (stereo not given), the EC50 in series [1] was 460 nM; in [3] it was more than 2300 nM; in series [5], 250 nM. In series [2], this compound registered a CC50 at 120 h of 2400 nM. Besides, the selectivity ratio in series [4] turned out to be 9.

Regarding `O=[N+]([O-])c1cccc(NC2=Nc3ccc(Cl)cc3C(C#CC3CC3)(C(F)(F)F)N2)c1` (stereo not given), the EC50 in series [1] was 360 nM; in series [3], more than 1600 nM; in series [5], 120 nM. This compound registered a CC50 at 120 h in series [2] of 1600 nM. For the same compound, the selectivity ratio in series [4] came out at 14.

On to `O=C1Nc2ccc(Cl)cc2[C@@](C#CC2CC2)(C(F)(F)F)O1` [EFAVIRENZ], for which the EC50 in series [1] was 2 nM; in series [3] it was 55 nM. The compound also returned a CC50 at 120 h in [2] of more than 2000 nM.

On to `Cc1cc(C#N)cc(C)c1Oc1nc(Nc2ccc(C#N)cc2)nc(N)c1Br` [ETRAVIRINE], for which the EC50 amounted to 6.3 nM in series [1] and 15 nM in series [3]. For the same compound, the CC50 at 120 h in [2] is more than 2000 nM. Further, the selectivity ratio in [4] is more than 923.
